For eleven compounds, MIC99 and zone of inhibition results are on record in ChEMBL document CHEMBL4382233, “Discovery of novel arylethenesulfonyl fluorides as potential candidates against methicillin-resistant of Staphylococcus aureus (MRSA) for overcoming multidrug resistance of bacterial infections” (2019).

≈ marks a conversion by molar mass, not a printed value.

What all share (type): functional
Test [1] relates to Staphylococcus aureus. The test can be described thus: Antibacterial activity against methicillin-resistant Staphylococcus aureus after overnight incubation by micro broth dilution analysis.
Test [2] concerns Staphylococcus haemolyticus. The test can be described thus: Antibacterial activity against methicillin-resistant Staphylococcus haemolyticus assessed as zone of inhibition at 50 ug/mL after 24 hrs by agar disc diffusion method. As to conditions: read-out: IZ.
Test [3] concerns Staphylococcus aureus. Briefly: Antibacterial activity against methicillin-resistant Staphylococcus aureus assessed as zone of inhibition at 200 ng/mL after 24 hrs by agar disc diffusion method. The settings on record: read-out: IZ.
In test [4] the test system is Staphylococcus haemolyticus. The test can be described thus: Antibacterial activity against methicillin-resistant Staphylococcus haemolyticus after overnight incubation by micro broth dilution analysis. A general note: Dilution methods test growth across graded concentrations, often in twofold steps.
For test [5], the system named is Staphylococcus aureus. The test can be described thus: Antibacterial activity against methicillin-resistant Staphylococcus aureus assessed as zone of inhibition at 400 ng/mL after 24 hrs by agar disc diffusion method. As to conditions: read-out: IZ. (In general: Agar diffusion results depend on both activity and mobility in agar.)
Test [6] deals with Staphylococcus epidermidis. The test can be described thus: Antibacterial activity against methicillin-resistant Staphylococcus epidermidis after overnight incubation by micro broth dilution analysis.
The subject of test [7] is Staphylococcus aureus. The test can be described thus: Antibacterial activity against methicillin-resistant Staphylococcus aureus assessed as zone of inhibition at 50 ug/mL after 24 hrs by agar disc diffusion method. As to conditions: read-out: IZ.
Test [8] deals with Staphylococcus aureus. Briefly: Antibacterial activity against methicillin-resistant Staphylococcus aureus assessed as zone of inhibition at 800 ng/mL after 24 hrs by agar disc diffusion method. The settings on record: read-out: IZ.
Test [9] deals with Staphylococcus epidermidis. The test can be described thus: Antibacterial activity against methicillin-resistant Staphylococcus epidermidis assessed as zone of inhibition at 20 ug/mL after 24 hrs by agar disc diffusion method. The settings on record: read-out: IZ.
The test system of test [10] is Staphylococcus epidermidis. Briefly: Antibacterial activity against methicillin-resistant Staphylococcus epidermidis assessed as zone of inhibition at 400 ng/mL after 24 hrs by agar disc diffusion method. As to conditions: read-out: IZ.
Test [11] concerns Staphylococcus epidermidis. The test can be described thus: Antibacterial activity against methicillin-resistant Staphylococcus epidermidis assessed as zone of inhibition at 200 ng/mL after 24 hrs by agar disc diffusion method. The settings on record: read-out: IZ.
The test system of test [12] is Staphylococcus epidermidis. The test can be described thus: Antibacterial activity against methicillin-resistant Staphylococcus epidermidis assessed as zone of inhibition at 800 ng/mL after 24 hrs by agar disc diffusion method. The settings on record: read-out: IZ.

One may read the MIC99 as the lowest concentration that inhibits either 99% of growth or 99% of the strains tested, depending on the study. High values mean weaker potency, low ones greater potency. On to `O=S(=O)(F)/C=C/c1cccc(C(F)(F)F)c1`, for which the results for the MIC99 (in the test on Staphylococcus aureus [1]; in test [4]; in test [6]) were 0.836 mg/L (≈ 3.29 µM), 43.2 mg/L (≈ 170 µM) and 40.1 mg/L (≈ 158 µM), respectively. For the same compound, the zone of inhibition at 50 µg/mL in test [2] was determined as 4.2 mm; with Staphylococcus aureus [7] it was 10.1 mm. Also, in the test with Staphylococcus aureus [3], the zone of inhibition at 0.2 µg/mL is 4.1 mm. In the test on Staphylococcus aureus [5], the zone of inhibition at 0.4 µg/mL was 5.4 mm. Also, in the test with Staphylococcus aureus [8], the zone of inhibition at 0.8 µg/mL turned out to be 7.7 mm. Besides, in test [9], the zone of inhibition at 20 µg/mL was 4.1 mm.

`O=S(=O)(F)/C=C/c1cccc2c1sc1ccccc12`: the MIC99 was 48.2 mg/L (≈ 165 µM) with Staphylococcus aureus [1], 66 mg/L (≈ 226 µM) in test [4] and 55 mg/L (≈ 188 µM) in test [6]. Besides, the zone of inhibition at 50 µg/mL was determined as 4.5 mm in test [2] and 8.1 mm in the test with Staphylococcus aureus [7]. In addition, in the test on Staphylococcus aureus [3], the zone of inhibition at 0.2 µg/mL was 3.5 mm. Besides, the zone of inhibition at 0.4 µg/mL in the test with Staphylococcus aureus [5] is 4.4 mm. For the same compound, the zone of inhibition at 0.8 µg/mL with Staphylococcus aureus [8] was found to be 4.5 mm. For the same compound, in test [9], the zone of inhibition at 20 µg/mL came out at 4.1 mm.

Consider `O=S(=O)(F)/C=C/c1ccc(F)cc1`, for which the MIC99 in the test on Staphylococcus aureus [1] worked out at 16.1 mg/L (≈ 79 µM); in test [4] it was 57.3 mg/L (≈ 281 µM); in [6], 61.1 mg/L (≈ 299 µM). The zone of inhibition at 50 µg/mL was 4.2 mm in [2] and 10.1 mm in the test on Staphylococcus aureus [7]. In the test on Staphylococcus aureus [3], the zone of inhibition at 0.2 µg/mL was 3.5 mm. Further, the zone of inhibition at 0.4 µg/mL with Staphylococcus aureus [5] is 4.1 mm. Also, in the test on Staphylococcus aureus [8], the zone of inhibition at 0.8 µg/mL stood at 4.5 mm. Also, the zone of inhibition at 20 µg/mL in test [9] was found to be 5.2 mm.

As to `O=S(=O)(F)/C=C/c1cc2ccccc2s1`, the MIC99 against Staphylococcus aureus [1] turned out to be 55 mg/L (≈ 227 µM); in test [4], 63.1 mg/L (≈ 261 µM); in test [6], 70.2 mg/L (≈ 290 µM). For the same compound, the zone of inhibition at 50 µg/mL in test [2] turned out to be 4.5 mm; in the test on Staphylococcus aureus [7], 8.2 mm. Also, the zone of inhibition at 0.2 µg/mL with Staphylococcus aureus [3] stood at 4.4 mm. Further, the zone of inhibition at 0.4 µg/mL in the test with Staphylococcus aureus [5] amounted to 6.3 mm. Besides, in the test with Staphylococcus aureus [8], the zone of inhibition at 0.8 µg/mL was determined as 8.5 mm. Moreover, the zone of inhibition at 20 µg/mL in [9] was determined as 5.2 mm.

Take `O=S(=O)(F)/C=C/c1ccc(F)cc1F`: the values for the MIC99 (in the test with Staphylococcus aureus [1]; in [4]; in test [6]) were 16.1 mg/L (≈ 72.3 µM), 55.1 mg/L (≈ 248 µM) and 47 mg/L (≈ 212 µM), respectively. Further, the zone of inhibition at 50 µg/mL in test [2] was determined as 3.5 mm; in the test with Staphylococcus aureus [7], 14.1 mm. In addition, the zone of inhibition at 0.2 µg/mL with Staphylococcus aureus [3] was determined as 3.1 mm. Further, in the test with Staphylococcus aureus [5], the zone of inhibition at 0.4 µg/mL came to 3.5 mm. Besides, the zone of inhibition at 0.8 µg/mL with Staphylococcus aureus [8] was determined as 4.1 mm. The zone of inhibition at 20 µg/mL in test [9] turned out to be 3.7 mm.

For the compound `COc1cc(/C=C/C=C/S(=O)(=O)F)cc(OC)c1`, the figures for the MIC99 (in the test with Staphylococcus aureus [1]; in test [4]; in test [6]) were 61.1 mg/L (≈ 225 µM), 56.6 mg/L (≈ 208 µM) and 57.1 mg/L (≈ 210 µM), respectively. The results for the zone of inhibition at 50 µg/mL (in [2]; in the test on Staphylococcus aureus [7]) were 4.2 mm and 16.1 mm, respectively. In addition, the zone of inhibition at 0.2 µg/mL with Staphylococcus aureus [3] is 5.2 mm. In addition, the zone of inhibition at 0.4 µg/mL with Staphylococcus aureus [5] stood at 7.1 mm. The zone of inhibition at 0.8 µg/mL with Staphylococcus aureus [8] came to 8.5 mm. Moreover, the zone of inhibition at 20 µg/mL in test [9] came to 4.1 mm.

Take `O=S(=O)(F)/C=C/c1ccc(O)cc1`: the MIC99 in the test on Staphylococcus aureus [1] turned out to be 16.1 mg/L (≈ 79.4 µM); in [4], 57.1 mg/L (≈ 283 µM); in test [6], 45 mg/L (≈ 223 µM). The zone of inhibition at 50 µg/mL in test [2] was found to be 3.5 mm; in the test on Staphylococcus aureus [7] it was 10.2 mm. In addition, the zone of inhibition at 0.2 µg/mL in the test on Staphylococcus aureus [3] amounted to 3.2 mm. Also, the zone of inhibition at 0.4 µg/mL in the test with Staphylococcus aureus [5] is 4.3 mm. In addition, in the test on Staphylococcus aureus [8], the zone of inhibition at 0.8 µg/mL worked out at 5.2 mm. For the same compound, in test [9], the zone of inhibition at 20 µg/mL turned out to be 4.5 mm.

In the case of `O=S(=O)(F)/C=C/c1ccc(Br)cc1`, the MIC99 in the test on Staphylococcus aureus [1] was 48.2 mg/L (≈ 182 µM); in [4] it was 66.1 mg/L (≈ 249 µM); in test [6], 0.837 mg/L (≈ 3.16 µM). Also, the zone of inhibition at 50 µg/mL was determined as 6.1 mm in [2] and 7.5 mm with Staphylococcus aureus [7]. Also, the zone of inhibition at 0.4 µg/mL in test [10] came out at 6.2 mm. Besides, the zone of inhibition at 0.2 µg/mL in test [11] worked out at 5.2 mm. Besides, the zone of inhibition at 0.8 µg/mL in [12] amounted to 7.5 mm. Further, the zone of inhibition at 20 µg/mL in [9] came to 7.3 mm.

As to `O=S(=O)(F)/C=C/c1ccccc1O`, the MIC99 in the test on Staphylococcus aureus [1] came out at 0.853 mg/L (≈ 4.22 µM); in test [4], 61 mg/L (≈ 302 µM); in [6], 58 mg/L (≈ 287 µM). Further, the zone of inhibition at 50 µg/mL in [2] stood at 3.5 mm; in the test with Staphylococcus aureus [7], 12.1 mm. In addition, the zone of inhibition at 0.2 µg/mL in the test with Staphylococcus aureus [3] is 3.5 mm. Besides, the zone of inhibition at 0.4 µg/mL in the test with Staphylococcus aureus [5] is 5.2 mm. The zone of inhibition at 0.8 µg/mL in the test with Staphylococcus aureus [8] was found to be 7.7 mm. Also, the zone of inhibition at 20 µg/mL in test [9] was 6.2 mm.

Turning to `O=S(=O)(F)/C=C/c1ccc(OC(F)(F)F)cc1`, the values for the MIC99 (with Staphylococcus aureus [1]; in test [4]; in [6]) were 40.2 mg/L (≈ 149 µM), 61.2 mg/L (≈ 227 µM) and 0.81 mg/L (≈ 3 µM), respectively. The zone of inhibition at 50 µg/mL is 4.3 mm in [2] and 6.1 mm in the test on Staphylococcus aureus [7]. Also, the zone of inhibition at 0.4 µg/mL in [10] was 8.3 mm. The zone of inhibition at 0.2 µg/mL in test [11] came to 7.1 mm. For the same compound, the zone of inhibition at 0.8 µg/mL in test [12] came out at 10.4 mm. Besides, the zone of inhibition at 20 µg/mL in [9] came out at 17.6 mm.

As to `Cc1ccc(/C=C/S(=O)(=O)F)c(C)c1`, the MIC99 in the test with Staphylococcus aureus [1] worked out at 43.1 mg/L (≈ 201 µM); in test [4], 43.3 mg/L (≈ 202 µM); in test [6] it was 0.813 mg/L (≈ 3.79 µM). For the same compound, the zone of inhibition at 50 µg/mL was 3.5 mm in test [2] and 6.5 mm with Staphylococcus aureus [7]. Besides, the zone of inhibition at 0.4 µg/mL in [10] was 6.2 mm. In addition, in test [11], the zone of inhibition at 0.2 µg/mL was 2.5 mm. Further, the zone of inhibition at 0.8 µg/mL in test [12] is 11.1 mm. In addition, the zone of inhibition at 20 µg/mL in test [9] is 10.7 mm.
